The conditions of data set [1]: HPLC, reversed-phase C 18, 40° C., 0.1% aqueous formic acid and acetonitrile, gradient 10% to 95% acetonitrile.
Procedure: temperature: 40° C.; mobile phases: 0.1% aqueous formic acid and acetonitrile; linear gradient from 10% acetonitrile to 95% acetonitrile;
Calibration was carried out using unbranched alkan-2-ones (comprising 3 to 16 carbon atoms) with known log P values (determination of the log P values by the retention times using linear interpolation between two successive alkanones). lambda-max-values were determined using UV-spectra from 200 nm to 400 nm and the peak values of the chromatographic signals.
For data set [2], the system named is Pyricularia oryzae. Nature of the data set: microbe, parasite or virus in culture. The following applies: 120 h, read-out: efficacy (inhibition of fungal growth). In kind it is cell-based.
The subject of data set [3] is Colletotrichum lindemuthianum. Briefly: In vitro cell test on Colletotrichum lindemuthianum. The format is cell-based. The following applies: 144 h, 20 ppm of active ingredient, 6 days incubation, liquid culture, spectrometric measurement of mycelium growth, read-out: efficacy (inhibition of fungal growth). Here is the method:
(§1) Solvent: dimethyl sulfoxide Culture medium: 14.6 g anhydrous D-glucose (VWR), • 7.1 g mycological peptone (Oxoid), • 1.4 g granulated yeast extract (Merck), QSP 1 liter Inoculum: spore suspension The tested compounds were solubilized in dimethyl sulfoxide and the solution used to prepare the required range of concentrations. […] A spore suspension of Colletotrichum lindemuthianum was prepared and diluted to the desired spore density. The compounds were evaluated for their ability to inhibit spore germination and mycelium growth in liquid culture assay. The compounds were added in the desired concentration to the culture medium with spores. After 6 days incubation, fungi-toxicity of compounds was determined by spectrometric measurement of mycelium growth. Inhibition of fungal growth was determined by comparing the absorbance values in wells containing the tested compound with the absorbance in control wells without the tested compound.

The subject of data set [4] is Leptnosphaeria nodorum. Briefly: In vitro cell test on Leptnosphaeria nodorum. In kind it is cell-based. The following applies: 120 h; 20 ppm of active ingredient; 5 days incubation; liquid culture, spectrometric measurement of mycelium growth; read-out: efficacy (inhibition of fungal growth). Here is the method:
as §1, with “of Leptnosphaeria nodorum” for “of Colletotrichum lindemuthianum”, “After 5” for “After 6”

In turn, `COc1nccc(Oc2cc3ccc(F)c(F)c3nc2C)c1Br` [IIb.05, 3-[(3-bromo-2-methoxypyridin-4-yl)oxy]-7,8-difluoro-2-methylquinoline] came in with a chromatographic logP in data set [1] of 3.85.

`Cc1nc2c(F)c(F)ccc2nc1Oc1cnccc1[Si](C)(C)C` [I.19]: the logP in data set [1] is given as 3.94.

The molecule `Fc1cc(Oc2cnc3ccccc3c2)ncn1` [VIIb.01, 3-[(6-fluoropyrimidin-4-yl)oxy]quinoline] showed a chromatographic logP in data set [1] of 2.08.

On to `Cc1nc2c(F)c(F)ccc2nc1Oc1ncc(Cl)cc1Br` [IId.01, 2-[(3-bromo-5-chloropyridin-2-yl)oxy]-5,6-difluoro-3-methylquinoxaline], for which, in data set [1], the chromatographic logP is 4.72.

For `Clc1cc(Oc2cnc3ccccc3c2)ccn1` [VIIa.01, 3-[(2-chloropyridin-4-yl)oxy]quinoline], in data set [1], the chromatographic logP turned out to be 2.47.

In data set [1], `Cc1nc2c(F)c(F)ccc2cc1Oc1sccc1Br` [IIf.01, 3-[(3-bromo-2-thienyl)oxy]-7,8-difluoro-2-methylquinoline] yielded a chromatographic logP of 4.23.

As to `C[Si](C)(Cc1ccccc1)c1c(Oc2cnc3ccccc3c2)ccnc1F` [I.06, 3-({3-[benzyl(dimethyl)silyl]-2-fluoropyridin-4-yl}oxy)quinoline], in data set [1], the chromatographic logP was found to be 4.78. For the same molecule, the inhibition at 20 ppm in data set [2] is 90 to 100%; in data set [3] it was 80 to 89%; in data set [4] it was 80 to 89%.

For the molecule `Cc1nc2c(F)c(F)ccc2cc1Nc1ncc(Cl)cc1Br` [IId.02, N-(3-bromo-5-chloropyridin-2-yl)-7,8-difluoro-2-methylquinolin-3-amine], the chromatographic logP in data set [1] worked out at 4.36.

`Cc1nc2c(F)c(F)ccc2cc1Cc1sccc1[Si](C)(C)C` [I.28, 7,8-difluoro-2-methyl-3-{[3-(trimethylsilyl)-2-thienyl]methyl}-quinoline] came in with a chromatographic logP in data set [1] of 5.25.

As to `Fc1cc(Oc2cnc3ccccc3c2)ccn1` [VIIa.03, 3-[(2-fluoropyridin-4-yl)oxy]quinoline], the chromatographic logP in data set [1] was 2.25.

Take `C[Si](C)(C)c1cnccc1Oc1cnc2ccccc2n1` [I.01]: in data set [1], the logP was 2.64.

Regarding `Clc1nccc(Oc2cnc3ccccc3c2)c1Br` [IIb.07, 3-[(3-bromo-2-chloropyridin-4-yl)oxy]quinoline], the chromatographic logP in data set [1] came to 2.35.

In the case of `Cc1nc2ccccc2nc1Oc1ccncc1[Si](C)(C)C` [I.23], the logP in data set [1] was 2.49.

In the case of `C[Si](C)(C)c1cnccc1Oc1cnc2ccccc2c1` [I.02], the logP in data set [1] stood at 2.15.

On to `Cc1nc2c(F)c(F)ccc2nc1Oc1cncc(Cl)c1Br` [IIc.01, 2-[(4-bromo-5-chloropyridin-3-yl)oxy]-5,6-difluoro-3-methylquinoxaline], for which the chromatographic logP in data set [1] was 4.06.

`C[Si](C)(C)c1cnccc1Oc1cnc2c(F)cccc2n1` [I.15] showed a lipophilicity (logP) in data set [1] of 2.75.

`Cc1nc2c(F)c(F)ccc2nc1Oc1cc(Cl)ncc1Br` [IIb.02, 2-[(5-bromo-2-chloropyridin-4-yl)oxy]-5,6-difluoro-3-methylquinoxaline] displayed a chromatographic logP in data set [1] of 4.2.

`C[Si](C)(C)c1c(Oc2cnc3ccccc3c2)ccnc1F` [I.03, 3-{[2-fluoro-3-(trimethylsilyl)pyridin-4-yl]oxy}quinoline]: the chromatographic logP in data set [1] came to 4.08. The inhibition at 20 ppm in data set [2], in data set [3] and in data set [4] was 90 to 100% in each case.

Regarding `Cc1nc2c(F)c(F)ccc2nc1Oc1cnccc1Br` [IIc.03, 2-[(4-bromopyridin-3-yl)oxy]-5,6-difluoro-3-methylquinoxaline], the chromatographic logP in data set [1] is 3.19.

The molecule `Clc1ncnc(Oc2cnc3ccccc3c2)c1Br` [IIe.01, 3-[(5-bromo-6-chloropyrimidin-4-yl)oxy]quinoline] showed a chromatographic logP in data set [1] of 3.09.

In data set [1], `Fc1nccc(Oc2cnc3ccccc3c2)c1Br` [IIb.01, 3-[(3-bromo-2-fluoropyridin-4-yl)oxy]quinoline] registered a logP of 2.92 and a chromatographic logP of 2.96.

With `Fc1cccc2cc(Nc3cccnc3Cl)cnc12` [IIa.04, N-(2-chloropyridin-3-yl)-8-fluoroquinolin-3-amine], in data set [1], the chromatographic logP was 2.14.

Consider `Cc1nc2ccccc2cc1Oc1cnccc1Br` [IIc.02, 3-[(4-bromopyridin-3-yl)oxy]-2-methylquinoline], for which the chromatographic logP in data set [1] turned out to be 2.44.

In the case of `Cc1nc2c(F)c(F)ccc2nc1Oc1cc(Cl)cnc1Br` [IIa.02, 2-[(2-bromo-5-chloropyridin-3-yl)oxy]-5,6-difluoro-3-methylquinoxaline], in data set [1], the chromatographic logP stood at 4.3.

On to `C[Si](C)(C)c1sccc1Cn1cnc2ccccc21` [I.25], for which the logP in data set [1] is 2.08.

On to `Cc1nc2c(F)c(F)ccc2cc1Oc1ccnc(C(F)(F)F)c1Br` [IIb.09, 3-{[3-bromo-2-(trifluoromethyl)pyridin-4-yl]oxy}-7,8-difluoro-2-methylquinoline], for which the chromatographic logP in data set [1] turned out to be 4.01.

On to `C[Si](C)(c1ccccc1)c1sccc1Cn1cnc2ccccc21` [I.26], for which the logP in data set [1] was found to be 2.49.

`Cc1nc2c(F)c(F)ccc2nc1Oc1ccncc1[Si](C)(C)C` [I.18]: the lipophilicity (logP) in data set [1] is 2.80.

`Cc1nc2c(F)c(F)ccc2nc1Oc1cccnc1Br` [IIa.01, 2-[(2-bromopyridin-3-yl)oxy]-5,6-difluoro-3-methylquinoxaline] gave a chromatographic logP in data set [1] of 3.26.

In data set [1], `Cc1nc2c(F)c(F)ccc2cc1Nc1ccnc(C(F)(F)F)c1Br` [IIb.10, N-[3-bromo-2-(trifluoromethyl)pyridin-4-yl]-7,8-difluoro-2-methylquinolin-3-amine] showed a chromatographic logP of 3.37.

The molecule `Fc1nccc(Oc2cnc3c(F)cccc3c2)c1Br` [IIb.06, 3-[(3-bromo-2-fluoropyridin-4-yl)oxy]-8-fluoroquinoline] yielded a chromatographic logP in data set [1] of 2.98.

In data set [1], `Cc1nc2ccccc2n1Cc1sccc1[Si](C)(C)C` [I.24, 2-methyl-1-{[3-(trimethylsilyl)-2-thienyl]methyl}-1H-benzimidazole] came in with a chromatographic logP of 2.13. For the same molecule, the inhibition at 20 ppm in data set [2], in data set [3] and in data set [4] was 90 to 100% throughout.

Regarding `Cc1nc2ccccc2cc1Oc1ccnc(F)c1` [VIIa.02, 3-[(2-fluoropyridin-4-yl)oxy]-2-methylquinoline], the chromatographic logP in data set [1] came to 2.17.

As to `Fc1nccc(Nc2cnc3ccccc3c2)c1Br` [IIb.08, N-(3-bromo-2-fluoropyridin-4-yl)quinolin-3-amine], the chromatographic logP in data set [1] amounted to 2.25.

Take `Fc1ccc2nc(Oc3cccnc3Br)cnc2c1F` [IIa.03, 2-[(2-bromopyridin-3-yl)oxy]-5,6-difluoroquinoxaline]: the chromatographic logP in data set [1] was 2.96.

Regarding `Fc1ccc2nc(Oc3ccncc3Br)cnc2c1F` [IIb.03, 2-[(3-bromopyridin-4-yl)oxy]-5,6-difluoroquinoxaline], the chromatographic logP in data set [1] was 1.81.

For the molecule `Clc1nccc(Nc2cnc3ccccc3c2)c1Br` [IIb.04, N-(3-bromo-2-chloropyridin-4-yl)quinolin-3-amine], the chromatographic logP in data set [1] turned out to be 2.35.

Broadly, the chromatographic logP is a lipophilicity value derived from retention on a column. A low value points to lower lipophilicity. One may read the logP as the decadic logarithm of the partition coefficient of the neutral form, usually between octanol and water. A low value points to a more hydrophilic compound. One may read the inhibition as the relative decrease from the control value, in per cent.
